Series [1] is described as follows: in vitro. Particulars: human.
In series [2] the test system is Poliovirus 3. As to the kind of experiment: microbe, parasite or virus in culture. In kind it is cell-based. Particulars: Enterovirus C, read-out: Poliovirus3 EC50.

≈ marks a conversion by molar mass, not a printed value. Bounds are passed on as bounds.

In turn, `CCOC(=O)OC12Oc3cc(C(C)C)ccc3C1(O)C(=O)c1ccccc12` (stereo not drawn) [Example 38, Ethyl 9b-hydroxy-7-isopropyl-10-oxo-9b,10-dihydro-4bH-benzo[d]indeno[1,2-b]furan-4b-yl carbonate] displayed a melting point of 144 to 147 °C. The compound further yielded a CC50 in series [1] (Picorana CC50) of 9.5 µg/mL (≈ 25.8 µM).

For the compound `CCOC(=O)N[C@@]12C(=O)c3ccccc3[C@]1(O)Oc1cc(C(C)C)ccc12`, the melting point lay in the range of 115 to 118 °C.

As to `COc1sccc1C(=O)NC12C(=O)c3c(N)cccc3C1(O)Oc1cc(C(C)C)ccc12` (stereo not drawn) [Example 217, N-(1-Amino-4b-hydroxy-7-isopropyl-10-oxo-9b,10-dihydro-4bH-indeno[1,2-b]benzofuran-9b-yl)-2-methoxythiophene-3-carboxamide], the EC50 in series [2] worked out at 0.038 µg/mL (≈ 0.0843 µM). Besides, the values for the CC50 in series [1] and in series [1] (Picorana CC50) were > 10 µg/mL and 4.24 µg/mL (≈ 9.41 µM), respectively.

Take `COC(=O)c1ccc(C(=O)NC23C(=O)c4c(N)cccc4C2(O)Oc2cc(C(C)C)ccc23)cc1` (stereo not drawn) [Example 189, Methyl-4-(1-amino-4b-hydroxy-7-isopropyl-10-oxo-9b,10-dihydro-4bH-benzo[d]indeno[1,2-b]furan-9b-ylcarbamoyl)benzoate]: the EC50 in series [2] was < 0.01 µg/mL. In addition, the results for the CC50 in series [1] and in series [1] (Picorana CC50) were > 10 µg/mL and 8.56 µg/mL (≈ 18.1 µM), respectively.

`CC(C)c1ccc2c(c1)OC1(O)c3ccccc3C(=O)C21NC(=O)c1ccc2[nH]nnc2c1` (stereo not drawn) [Example 221, N-(4b-Hydroxy-7-isopropyl-10-oxo-9b,10-dihydro-4bH-benzo[d]indeno[1,2-b]furan-9b-yl)-1H-benzo[d][1,2,3]triazole-5-carboxamide]: in series [2], the EC50 is 0.016 µg/mL (≈ 0.0363 µM). Further, the CC50 in series [1] worked out at 6.53 µg/mL (≈ 14.8 µM); in series [1] (Picorana CC50), 14.5 µg/mL (≈ 32.9 µM).

As for `Cc1nc(C(=O)NC23C(=O)c4c(N)cccc4C2(O)Oc2cc(C(C)C)ccc23)c2ccccn12` (stereo not drawn) [Example 287, N-(1-Amino-4b-hydroxy-7-isopropyl-10-oxo-9b,10-dihydro-4bH-benzo[d]indeno[1,2-b]furan-9b-yl)-3-methylimidazo[1,5-a]pyridine-1-carboxamide], the EC50 in series [2] was 0.036 µg/mL (≈ 0.0768 µM). Moreover, the figures for the CC50 in series [1] and in series [1] (Picorana CC50) were > 10 µg/mL and 7.01 µg/mL (≈ 15 µM), respectively.

In the case of `CC(C)c1ccc2c(c1)OC1(O)c3cccc(N)c3C(=O)C21NC(=O)C(C)(C)C` (stereo not drawn) [Example 114, N-(1-Amino-4b-hydroxy-7-isopropyl-10-oxo-9b,10-dihydro-4bH-benzo[d]indeno[1,2-b]furan-9b-yl)pivalamide], the EC50 in series [2] was 0.034 µg/mL (≈ 0.0862 µM). In addition, the CC50 in series [1] is 43.1 µg/mL (≈ 109 µM); in series [1] (Picorana CC50), 45.9 µg/mL (≈ 116 µM).

For `CCOC(=O)OC12Oc3cc(C(C)C)ccc3C1(NC(C)=O)C(=O)c1c(N)cccc12` (stereo not drawn) [Example 123, 9b-Acetamido-1-amino-7-isopropyl-10-oxo-9b,10-dihydro-4bH-benzo[d]indeno[1,2-b]furan-4b-yl ethyl carbonate], the concentration giving a half-maximal response (EC50) in series [2] was < 0.01 µg/mL. The CC50 worked out at 43.4 µg/mL (≈ 102 µM) in series [1] and 37.5 µg/mL (≈ 88.4 µM) in series [1] (Picorana CC50).

With `CC(C)c1ccc2c(c1)OC1(O)c3cccc(N)c3C(=O)C21NC(=O)c1cn2cccnc2n1` (stereo not drawn) [Example 285, N-(1-Amino-4b-hydroxy-7-isopropyl-10-oxo-9b,10-dihydro-4bH-indeno[1,2-b]benzofuran-9b-yl)imidazo[1,2-a]pyrimidine-2-carboxamide], the EC50 in series [2] was < 0.01 µg/mL. Also, in series [1], the CC50 was > 10 µg/mL.

With `Cc1c(C(=O)NC23C(=O)c4c(N)cccc4C2(O)Oc2cc(C(C)C)ccc23)oc2ccccc12` (stereo not drawn) [Example 205], the EC50 in series [2] was determined as 0.036 µg/mL (≈ 0.0768 µM). Also, the CC50 in series [1] is > 10 µg/mL.

For `Cc1ccc(C(=O)NC23C(=O)c4c(N)cccc4C2(O)Oc2cc(C(C)C)ccc23)cc1` (stereo not drawn) [Example 188, N-(1-Amino-4b-hydroxy-7-isopropyl-10-oxo-9b,10-dihydro-4bH-benzo[d]indeno[1,2-b]furan-9b-yl)-4-methylbenzamide], the EC50 in series [2] was < 0.01 µg/mL. In addition, the figures for the CC50 in series [1] and in series [1] (Picorana CC50) were > 10 µg/mL and 8.38 µg/mL (≈ 19.6 µM), respectively.

On to `Cc1cncc(C(=O)NC23C(=O)c4c(N)cccc4C2(O)Oc2cc(C(C)C)ccc23)c1` (stereo not drawn) [Example 259, N-(1-Amino-4b-hydroxy-7-isopropyl-10-oxo-9b,10-dihydro-4bH-indeno[1,2-b]benzofuran-9b-yl)-5-methylnicotinamide], for which the EC50 in series [2] was < 0.01 µg/mL. Further, the CC50 in series [1] was > 10 µg/mL.

With `CC(C)c1ccc2c(c1)OC1(O)c3cccc(N)c3C(=O)C21NC(=O)c1cncc(F)c1` (stereo not drawn) [Example 255, N-(1-Amino-4b-hydroxy-7-isopropyl-10-oxo-9b,10-dihydro-4bH-indeno[1,2-b]benzofuran-9b-yl)-5-fluoronicotinamide], the EC50 in series [2] was < 0.01 µg/mL. For the same compound, the CC50 in series [1] was > 10 µg/mL.

With `CC(C)c1ccc2c(c1)OC1(O)c3cccc(N)c3C(=O)C21NC(=O)c1cc(C(F)(F)F)ccn1` (stereo not drawn) [Example 244, N-(1-Amino-4b-hydroxy-7-isopropyl-10-oxo-9b,10-dihydro-4bH-benzo[d]indeno[1,2-b]furan-9b-yl)-4-(trifluoromethyl)picolinamide], the EC50 in series [2] was < 0.01 µg/mL. The results for the CC50 in series [1] and in series [1] (Picorana CC50) were > 10 µg/mL and 15.7 µg/mL (≈ 32.5 µM), respectively.

In the case of `CC(C)c1ccc2c(c1)OC1(O)c3cccc(N)c3C(=O)C21NC(=O)c1cccc(Cl)c1` (stereo not drawn) [Example 190, N-(1-Amino-4b-hydroxy-7-isopropyl-10-oxo-9b,10-dihydro-4bH-indeno[1,2-b]benzofuran-9b-yl)-3-chlorobenzamide], the EC50 in series [2] is < 0.01 µg/mL. Besides, the figures for the CC50 in series [1] and in series [1] (Picorana CC50) were 5.52 µg/mL (≈ 12.3 µM) and > 10 µg/mL, respectively.

Consider `CC(C)c1ccc2c(c1)OC1(O)c3cccc(N)c3C(=O)C21NC(=O)c1cc2ccccc2cn1` (stereo not drawn) [Example 248, N-(1-Amino-4b-hydroxy-7-isopropyl-10-oxo-9b,10-dihydro-4bH-indeno[1,2-b]benzofuran-9b-yl)isoquinoline-3-carboxamide], for which the EC50 in series [2] was determined as 0.027 µg/mL (≈ 0.058 µM). The CC50 in series [1] is > 10 µg/mL; in series [1] (Picorana CC50) it was 4.99 µg/mL (≈ 10.7 µM).

As for `CCCCC(=O)NC12C(=O)c3c(N)cccc3C1(OC(=O)CCCC)Oc1cc(C(C)C)ccc12` (stereo not drawn) [Example 96, 1-Amino-7-isopropyl-10-oxo-9b-pentanamido-9b,10-dihydro-4bH-benzo[d]indeno[1,2-b]furan-4b-yl pentanoate], the EC50 in series [2] is 0.016 µg/mL (≈ 0.0334 µM). The CC50 in series [1] was 24 µg/mL (≈ 50.1 µM); in series [1] (Picorana CC50) it was > 50 µg/mL.

As to `CC(C)c1ccc2c(c1)OC1(O)c3cccc(N)c3C(=O)C21NC(=O)c1n[nH]cc1[N+](=O)[O-]` (stereo not drawn) [Example 242, N-(1-Amino-4b-hydroxy-7-isopropyl-10-oxo-9b,10-dihydro-4bH-benzo[d]indeno[1,2-b]furan-9b-yl)-4-nitro-1H-pyrazole-3-carboxamide], the EC50 in series [2] is < 0.01 µg/mL. For the same compound, the CC50 is > 10 µg/mL in series [1] and 8.55 µg/mL (≈ 19 µM) in series [1] (Picorana CC50).

As to `Cc1cc(C(=O)NC23C(=O)c4c(N)cccc4C2(O)Oc2cc(C(C)C)ccc23)ccn1` (stereo not drawn) [Example 249, N-(1-Amino-4b-hydroxy-7-isopropyl-10-oxo-9b,10-dihydro-4bH-indeno[1,2-b]benzofuran-9b-yl)-2-methylisonicotinamide], the EC50 in series [2] was < 0.01 µg/mL. The CC50 in series [1] was > 10 µg/mL.

As to `CC(C)c1ccc2c(c1)OC1(O)c3cccc(N)c3C(=O)C21NC(=O)c1cccc[n+]1[O-]` (stereo not drawn) [Example 253, 2-((1-Amino-4b-hydroxy-7-isopropyl-10-oxo-9b,10-dihydro-4bH-indeno[1,2-b]benzofuran-9b-yl)carbamoyl)pyridine 1-oxide], the EC50 in series [2] was < 0.01 µg/mL. In addition, the CC50 in series [1] was > 10 µg/mL.

Turning to `CC(C)c1ccc2c(c1)OC1(O)c3cccc(N)c3C(=O)C21NC(=O)c1cccn2nnnc12` (stereo not drawn) [Example 279, N-(1-Amino-4b-hydroxy-7-isopropyl-10-oxo-9b,10-dihydro-4bH-indeno[1,2-b]benzofuran-9b-yl)tetrazolo[1,5-a]pyridine-8-carboxamide], the EC50 in series [2] stood at 0.035 µg/mL (≈ 0.0767 µM). The CC50 in series [1] was determined as 4.94 µg/mL (≈ 10.8 µM); in series [1] (Picorana CC50), 7.88 µg/mL (≈ 17.3 µM).

On to `CC(C)c1ccc2c(c1)OC1(O)c3cccc(N)c3C(=O)C21NC(=O)c1ccc2nnnn2c1` (stereo not drawn) [Example 278, N-(1-Amino-4b-hydroxy-7-isopropyl-10-oxo-9b,10-dihydro-4bH-indeno[1,2-b]benzofuran-9b-yl)tetrazolo[1,5-a]pyridine-6-carboxamide], for which, in series [2], the EC50 was < 0.01 µg/mL. For the same compound, the CC50 in series [1] is > 10 µg/mL.

Regarding `CC(C)c1ccc2c(c1)OC1(O)c3cccc(N)c3C(=O)C21NC(=O)c1cc2ccccc2n1C` (stereo not drawn) [Example 268, N-(1-Amino-4b-hydroxy-7-isopropyl-10-oxo-9b,10-dihydro-4bH-indeno[1,2-b]benzofuran-9b-yl)-1-methyl-1H-indole-2-carboxamide], the EC50 in series [2] was 0.036 µg/mL (≈ 0.077 µM). Further, the CC50 was > 10 µg/mL in series [1] and 9.28 µg/mL (≈ 19.8 µM) in series [1] (Picorana CC50).

Turning to `CC(C)c1ccc2c(c1)OC1(O)c3cccc(N)c3C(=O)C21NC(=O)c1ccc(C#N)cn1` (stereo not drawn) [Example 245, N-(1-Amino-4b-hydroxy-7-isopropyl-10-oxo-9b,10-dihydro-4bH-benzo[d]indeno[1,2-b]furan-9b-yl)-5-cyanopicolinamide], the concentration giving a half-maximal response (EC50) in series [2] was < 0.01 µg/mL. Also, the CC50 in series [1] is > 10 µg/mL; in series [1] (Picorana CC50) it was 8.47 µg/mL (≈ 19.2 µM).

With `CC(C)c1ccc2c(c1)OC1(O)c3cccc(N)c3C(=O)C21NC(=O)c1ccc(Cl)cc1` (stereo not drawn) [Example 155, N-(1-Amino-4b-hydroxy-7-isopropyl-10-oxo-9b,10-dihydro-4bH-indeno[1,2-b]benzofuran-9b-yl)-4-chlorobenzamide], the EC50 in series [2] was < 0.01 µg/mL. The results for the CC50 in series [1] and in series [1] (Picorana CC50) were 7.81 µg/mL (≈ 17.4 µM) and 9.02 µg/mL (≈ 20.1 µM), respectively.

Turning to `CC(C)c1ccc2c(c1)OC1(O)c3cccc(N)c3C(=O)C21NC(=O)c1ccc2ccccc2c1` (stereo not drawn) [Example 171, N-(1-Amino-4b-hydroxy-7-isopropyl-10-oxo-9b,10-dihydro-4bH-indeno[1,2-b]benzofuran-9b-yl)-2-naphthamide], the EC50 in series [2] was 0.03 µg/mL (≈ 0.0646 µM). Moreover, in series [1], the CC50 was > 10 µg/mL.

As to `CC(C)c1ccc2c(c1)OC1(O)c3cccc(N)c3C(=O)C21NC(=O)Cn1cnnn1` (stereo not drawn) [Example 213, N-(1-Amino-4b-hydroxy-7-isopropyl-10-oxo-9b,10-dihydro-4bH-benzo[d]indeno[1,2-b]furan-9b-yl)-2-(1H-tetrazol-1-yl)acetamide], in series [2], the EC50 is < 0.01 µg/mL. For the same compound, the CC50 in series [1] was > 10 µg/mL.

For the origin of these results see patent US9890133B2 (priority 2011, dated 2018).
